#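 Grown in 96-well plates, cells were treated for 48 hours with each compound at five concentrations. Insufficient inhibition: endpoint recorded as highest concentration tested. TGI is the concentration that stops growth completely.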
# Tests used:
# Assay in all cases: NCI anticancer screen, dose series, 48 h
# ACHN renal = system: ACHN renal
# CAKI-1 renal = system: CAKI-1 renal
# EKVX NSCLC = system: EKVX NSCLC
# HCC-2998 colon = system: HCC-2998 colon
# HCT-15 colon = system: HCT-15 colon
# HT29 colon = system: HT29 colon
# K-562 leukemia = system: K-562 leukemia
# LOX IMVI melanoma = system: LOX IMVI melanoma
# MALME-3M melanoma = system: MALME-3M melanoma
# RPMI-8226 leukemia = system: RPMI-8226 leukemia
# SF-268 CNS = system: SF-268 CNS
# SF-295 CNS = system: SF-295 CNS
# SF-539 CNS = system: SF-539 CNS
# SK-MEL-5 melanoma = system: SK-MEL-5 melanoma
# SNB-75 CNS = system: SNB-75 CNS
# U251 CNS = system: U251 CNS
# DU-145 prostate = system: DU-145 prostate
# MDA-MB-231 breast = system: MDA-MB-231 breast
# T-47D breast = system: T-47D breast
# NCI/ADR-RES ovarian = system: NCI/ADR-RES ovarian
SMILES,TGI (ACHN renal),TGI (CAKI-1 renal),TGI (EKVX NSCLC),TGI (HCC-2998 colon),TGI (HCT-15 colon),TGI (HT29 colon),TGI (K-562 leukemia),TGI (LOX IMVI melanoma),TGI (MALME-3M melanoma),TGI (RPMI-8226 leukemia),TGI (SF-268 CNS),TGI (SF-295 CNS),TGI (SF-539 CNS),TGI (SK-MEL-5 melanoma),TGI (SNB-75 CNS),TGI (U251 CNS),TGI (DU-145 prostate),TGI (MDA-MB-231 breast),TGI (T-47D breast),TGI (NCI/ADR-RES ovarian)
COc1cc(C=O)c(-c2c(C=O)ccc3c2OCO3)c(OC)c1OC,> 100 µM,> 100 µM,> 100 µM,> 100 µM,> 100 µM,> 100 µM,> 100 µM,> 100 µM,> 100 µM,> 100 µM,> 100 µM,> 100 µM,> 100 µM,> 100 µM,> 100 µM,> 100 µM,,,,
CC1C2CC(C(S(=O)(=O)O)C2=O)C1(C)C (stereo not drawn),> 100 µM,,> 100 µM,> 100 µM,,> 100 µM,> 100 µM,,> 100 µM,,> 100 µM,> 100 µM,> 100 µM,,> 100 µM,> 100 µM,> 100 µM,> 100 µM,> 100 µM,
COc1ccc2nc3cc(Cl)ccc3c(Sc3ccc([N+](=O)[O-])cc3C)c2c1,> 100 µM,> 100 µM,> 100 µM,> 100 µM,> 100 µM,,> 100 µM,> 100 µM,> 100 µM,,> 100 µM,> 100 µM,> 100 µM,> 100 µM,> 100 µM,> 100 µM,,,,
O=C(Nc1cccc(O)c1)C(=O)C1C(=O)NC(=S)NC1=O,> 100 µM,> 100 µM,> 100 µM,> 100 µM,> 100 µM,> 100 µM,> 100 µM,> 100 µM,> 100 µM,> 100 µM,> 100 µM,> 100 µM,> 100 µM,> 100 µM,> 100 µM,> 100 µM,,,,
CN(C)CCOc1ccc([N+](=O)[O-])c2cccnc12,> 100 µM,> 100 µM,,> 100 µM,> 100 µM,> 100 µM,> 100 µM,,> 100 µM,,> 100 µM,> 100 µM,> 100 µM,> 100 µM,> 100 µM,> 100 µM,> 100 µM,> 100 µM,> 100 µM,> 100 µM
CNC1(c2cc3ccccc3s2)CCCCC1,> 100 µM,> 100 µM,93.8 µM,28.7 µM,> 100 µM,67.8 µM,> 100 µM,40.9 µM,,,42.8 µM,> 100 µM,46.3 µM,36 µM,99.3 µM,33.8 µM,> 100 µM,71.8 µM,,> 100 µM
O=C1COc2cc(NC(=S)Nc3ccccc3)ccc2N1,> 100 µM,> 100 µM,> 100 µM,> 100 µM,> 100 µM,> 100 µM,> 100 µM,> 100 µM,> 100 µM,> 100 µM,> 100 µM,> 100 µM,> 100 µM,> 100 µM,> 100 µM,> 100 µM,,,,
CC1(c2cccc(C3CC4(CCC3=O)OCCCCO4)c2)OCCO1 (stereo not drawn),> 100 µM,> 100 µM,,> 100 µM,> 100 µM,> 100 µM,> 100 µM,> 100 µM,> 100 µM,> 100 µM,> 100 µM,> 100 µM,> 100 µM,> 100 µM,> 100 µM,> 100 µM,,,,
CC[C@@H](C)[C@H](NC(=O)[C@H](Cc1ccccc1)NCC(F)(F)F)C(=O)OC(C)(C)C,> 100 µM,> 100 µM,> 100 µM,> 100 µM,> 100 µM,> 100 µM,> 100 µM,> 100 µM,> 100 µM,,> 100 µM,> 100 µM,,> 100 µM,,> 100 µM,> 100 µM,> 100 µM,> 100 µM,> 100 µM
N[C@@H]1CCN(c2c(F)cc3c(=O)c(C(=O)O)cn4c3c2Oc2c-4ccc3c2ccc2ccccc23)C1,4.25 µM,> 100 µM,> 100 µM,3.56 µM,> 100 µM,> 100 µM,> 100 µM,> 100 µM,,36.3 µM,> 100 µM,> 100 µM,> 100 µM,> 100 µM,,10.5 µM,> 100 µM,,,> 100 µM
NC(=Nc1ccccc1Cl)c1ccccc1N,> 100 µM,> 100 µM,> 100 µM,> 100 µM,> 100 µM,> 100 µM,> 100 µM,> 100 µM,> 100 µM,> 100 µM,> 100 µM,> 100 µM,,> 100 µM,> 100 µM,> 100 µM,> 100 µM,> 100 µM,,> 100 µM
COc1ccc2c(c1)CN1C(=N2)CSC1c1cccc(Br)c1 (stereo not drawn),> 100 µM,> 100 µM,> 100 µM,57.8 µM,> 100 µM,72.3 µM,> 100 µM,> 100 µM,> 100 µM,35.2 µM,> 100 µM,> 100 µM,> 100 µM,83.7 µM,64.5 µM,> 100 µM,,> 100 µM,> 100 µM,> 100 µM
C=C(C)C1CCC(C(=O)O)CC1 (stereo not drawn),> 100 µM,> 100 µM,> 100 µM,> 100 µM,> 100 µM,> 100 µM,> 100 µM,> 100 µM,> 100 µM,> 100 µM,> 100 µM,> 100 µM,> 100 µM,> 100 µM,> 100 µM,> 100 µM,> 100 µM,> 100 µM,> 100 µM,
CC(=O)c1ccc(NC(=O)/C(CC(=O)c2sc(-c3cccnc3)nc2C)=N/NC(N)=O)cc1,56.1 µM,86 µM,,,> 100 µM,> 100 µM,> 100 µM,> 100 µM,> 100 µM,54.4 µM,> 100 µM,> 100 µM,,> 100 µM,,> 100 µM,,,,
CCOC1C(Br)Cn2c(=O)c3cc4ccccc4cc3c(=O)n2C1C (stereo not drawn),> 100 µM,> 100 µM,> 100 µM,> 100 µM,> 100 µM,> 100 µM,> 100 µM,> 100 µM,> 100 µM,> 100 µM,> 100 µM,> 100 µM,> 100 µM,> 100 µM,> 100 µM,> 100 µM,,,,
CC12C=CC(C)(C3C(=O)C4C(C(=O)C31)C1(C)C=CC4(C)S1=O)S2=O (stereo not drawn),> 100 µM,> 100 µM,> 100 µM,> 100 µM,> 100 µM,> 100 µM,,> 100 µM,> 100 µM,,> 100 µM,> 100 µM,> 100 µM,> 100 µM,> 100 µM,,> 100 µM,> 100 µM,,> 100 µM
OCC12C=CC(C1)c1ccccc12 (stereo not drawn),> 100 µM,> 100 µM,,> 100 µM,> 100 µM,> 100 µM,> 100 µM,> 100 µM,> 100 µM,> 100 µM,> 100 µM,> 100 µM,,> 100 µM,,> 100 µM,,,,
O=[N+]([O-])c1ccc(CSc2nncc3[nH]cnc23)cc1,> 100 µM,> 100 µM,> 100 µM,> 100 µM,> 100 µM,> 100 µM,> 100 µM,> 100 µM,> 100 µM,> 100 µM,,> 100 µM,> 100 µM,> 100 µM,> 100 µM,> 100 µM,,> 100 µM,> 100 µM,> 100 µM
N#C/C(=C/c1cccc(Oc2ccccc2)c1)c1ccccc1,> 100 µM,> 100 µM,> 100 µM,> 100 µM,> 100 µM,> 100 µM,> 100 µM,> 100 µM,> 100 µM,> 100 µM,> 100 µM,> 100 µM,> 100 µM,> 100 µM,> 100 µM,> 100 µM,,,,
Cc1ccc(C(=O)O)c(/C=C2\Cc3ccc(C)cc3C2=O)c1,> 100 µM,> 100 µM,> 100 µM,> 100 µM,> 100 µM,> 100 µM,> 100 µM,> 100 µM,> 100 µM,53.3 µM,> 100 µM,> 100 µM,49.3 µM,> 100 µM,> 100 µM,> 100 µM,> 100 µM,,> 100 µM,> 100 µM
CCN1C[C@]2(C)CC[C@H](O)C34C1C(C[C@@H]32)[C@@]1(O)CC[C@H]2C[C@@H]4[C@@H]1[C@H]2O,> 100 µM,> 100 µM,,,> 100 µM,> 100 µM,,> 100 µM,> 100 µM,> 100 µM,> 100 µM,> 100 µM,> 100 µM,> 100 µM,> 100 µM,> 100 µM,,,,
S=C(N/N=C/c1ccccn1)N1CCCCC1,3.44 µM,> 100 µM,17.4 µM,> 100 µM,28.3 µM,> 100 µM,45.6 µM,20.8 µM,7.57 µM,1.68 µM,,> 100 µM,0.749 µM,1.13 µM,0.181 µM,> 43.1 µM,> 100 µM,,,< 0.0382 µM
O=C(NN1C(=O)C(Cl)C1c1ccc(Cl)cc1)c1c(Cl)c(Cl)c(Cl)c(Cl)c1-c1nc2ccccc2[nH]1 (stereo not drawn),43.5 µM,23.2 µM,88.7 µM,30.9 µM,54.4 µM,75.8 µM,> 100 µM,32.5 µM,63.4 µM,,> 100 µM,> 100 µM,> 100 µM,> 100 µM,57 µM,,42.6 µM,,25 µM,> 100 µM
CCC(CC)NC1=C(NC(C)=O)C(=O)c2ccccc2C1=O,> 50 µM,,> 50 µM,> 50 µM,> 50 µM,> 50 µM,> 50 µM,> 50 µM,> 50 µM,,> 50 µM,> 50 µM,> 50 µM,> 50 µM,> 50 µM,> 50 µM,,,,
CC1(C)OCN(c2ccc(N3CCOCC3)cc2)Cn2c1nc1ccccc12,> 100 µM,,> 100 µM,> 100 µM,> 100 µM,> 100 µM,> 100 µM,> 100 µM,> 100 µM,86.6 µM,> 100 µM,> 100 µM,> 100 µM,,> 100 µM,> 100 µM,,,,
CCC1=CCN(c2cc(C)ccn2)OC1c1ccc(OC)cc1 (stereo not drawn),> 100 µM,> 100 µM,> 100 µM,86.8 µM,> 100 µM,50.2 µM,> 100 µM,> 100 µM,84.1 µM,62.6 µM,> 100 µM,70.8 µM,,30.5 µM,> 100 µM,44.1 µM,,,,
COc1c(=O)cc2cc[nH]c3cc[nH]c1c23,> 100 µM,> 100 µM,> 100 µM,> 100 µM,> 100 µM,> 100 µM,> 100 µM,> 100 µM,> 100 µM,> 100 µM,,> 100 µM,,> 100 µM,,> 100 µM,> 100 µM,> 100 µM,,> 100 µM
COC(=O)[C@@H]1C[C@H]2OC(=O)CC[C@]2(C)O[C@H]1[C@H]1O[C@@](C)(O)CCC[C@H]1C,> 50 µM,> 50 µM,> 50 µM,> 50 µM,> 50 µM,> 50 µM,> 50 µM,> 50 µM,> 50 µM,> 50 µM,> 50 µM,> 50 µM,> 50 µM,> 50 µM,,> 50 µM,> 50 µM,> 50 µM,> 50 µM,

# Source: PubChem BioAssay (NCI)
